Results from US11712433B2, “Compositions comprising PKM2 modulators and methods of treatment using the same” (priority 2019, dated 2023).

Key:
[1] = test system: A549 lung cancer cells; assay: A549 xenograft, traditional versus serine- and glycine-depleted diet (Example 4); format: in vivo, athymic nude mice; settings: 100 mpk oral gavage qd x 21
Text: The traditional diet control was the Baker Amino Acid diet (catalog #5CC7, Test Diet) and the depleted diet was a modified Baker Amino Acid diet which compensated for serine and glycine depletion with increases in all remaining amino acids (catalog #5BJX, Test Diet).

[2] = test system: A549 cells; assay: GSH-Glo glutathione levels in A549 cells (Example 10); format: cell-based; settings: concentration of 10, 24 hours, relative to DMSO
Experimental: A549 cells were prepared according to Example 3 above. […] Cells were treated for 24 hours, and then glutathione levels were determined using a GSH-Glo assay kit and procedure from Promega (catalog #V6912).

[3] = test system: MC38 tumors; assay: Metabolite levels in treated versus vehicle-treated MC38 tumors; format: in vivo, mice; settings: treated compared to vehicle-treated MC38 tumors
Text: Potential downstream biomarkers, including metabolism, immune gene alterations and immune phenotyping are currently under evaluation using LC-MS/MS, NanoString and flow cytometry.

SMILES: Nc1cccc(F)c1CN(CCC1CCS(=O)(=O)CC1)C(=O)c1cc(C(F)(F)F)n[nH]1 [compound of Structure (I)]
- body weight [1]: no significant body weight reduction or fluctuation
- tumor volume ([1]; serine- and glycine-depleted diet versus traditional diet): best reduction of tumor volume
- glutathione levels [2]: decreased levels of glutathione
- levels of glucose 6-phosphate in tumors [3]: decreased
- levels of glucose in tumors [3]: Increased
- levels of lactate in tumors [3]: decreased
- levels of phosphoenolpyruvate in tumors [3]: decreased
- levels of phosphoglycerate in tumors [3]: decreased
